In US20030211475A1, “Methods for identifying pathway-specific reporters and target genes, and uses thereof” (Rosetta Inpharmatics, Inc., priority 1999, published 2003):

Test system: ergosterol pathway
Test: DNA microarray transcript profiling of clotrimazole-treated yeast

Clc1ccccc1C(c1ccccc1)(c1ccccc1)n1ccnc1 [Clotrimazole, clotrimazole] was tested. Which “YPL272C expression in response to drug treatment (titration plot, FIG. 13)” value (clotrimazole titration) did it give?
The value was “induced to a high level”.

What about the “number of genes upregulated by treatment” value (wild-type strain R174, YPD, 30° C., 12 hours, 0.03, 0.1, 1.0, and 3.0 ug/ml) of the same compound?
Its value is roughly 500.
